Drawing on PubChem BioAssay (NCI), this text covers TGI for 17 compounds.

Test systems include UO-31 renal; IGROV1 ovarian; RPMI-8226 leukemia; HOP-92 NSCLC; COLO 205 colon; MALME-3M melanoma; MOLT-4 leukemia; CCRF-CEM leukemia; UACC-62 melanoma; NCI/ADR-RES ovarian; HCC-2998 colon.
Common to all, as to assay: growth of human tumour cells (NCI), 48 h

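Method: 48-hour compound exposure of cells in 96-well plates, five concentrations, linear interpolation of endpoints. At the TGI there is no net growth.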

In the case of `O=c1[nH]c(=O)n(COC(CO)CO)cc1-c1ccccc1`, the TGI with UO-31 renal, in the assay with IGROV1 ovarian, in the assay on RPMI-8226 leukemia, in the assay on HOP-92 NSCLC, with COLO 205 colon and in the assay with MALME-3M melanoma was greater than 100 µM in each case. Moreover, the TGI in the assay with MOLT-4 leukemia, in the assay with CCRF-CEM leukemia, in the assay on UACC-62 melanoma, with NCI/ADR-RES ovarian and in the assay with HCC-2998 colon was greater than 100 µM in each case.

As for `O=C(CNc1ccccc1C(=O)O)Nn1cnc2ccc(S(=O)(=O)Nc3ccccc3C(=O)O)cc2c1=O`, the TGI in the assay on UO-31 renal, in the assay on IGROV1 ovarian, in the assay with RPMI-8226 leukemia, in the assay on HOP-92 NSCLC, in the assay on COLO 205 colon and with MALME-3M melanoma was greater than 100 µM each time. Further, the TGI with MOLT-4 leukemia, in the assay on CCRF-CEM leukemia, in the assay on UACC-62 melanoma, in the assay on NCI/ADR-RES ovarian and with HCC-2998 colon was greater than 100 µM in each case.

For the compound `COC1(CC[C@@H](C)COC2OC(CO)C(O)C(O)C2O)OC2C[C@H]3[C@@H]4CC[C@H]5C[C@@H](OC6OC(CO)C(OC7OC(CO)C(O)C(O)C7O)C(O)C6OC6OC(C)C(O)C(O)C6O)[C@H](O)C[C@]5(C)[C@H]4CC[C@]3(C)C2[C@@H]1C` (some centres not stated), the TGI in the assay with UO-31 renal was determined as 3.31 µM; in the assay on IGROV1 ovarian it was 3.19 µM; in the assay with RPMI-8226 leukemia, 4.58 µM; with HOP-92 NSCLC, 12.8 µM; with COLO 205 colon, 6.69 µM; in the assay on MALME-3M melanoma, 3.33 µM. Besides, the TGI in the assay with MOLT-4 leukemia is 8.14 µM; with CCRF-CEM leukemia, 3.9 µM; in the assay with UACC-62 melanoma, 3.45 µM; in the assay with NCI/ADR-RES ovarian, greater than 20.6 µM; with HCC-2998 colon, 3.24 µM.

In the case of `Cc1ccccc1NC(=O)O/N=C(\Cl)C(C)C`, the TGI worked out at 31.3 µM with UO-31 renal; 27.6 µM in the assay with IGROV1 ovarian; 4.03 µM in the assay with RPMI-8226 leukemia; 4.08 µM in the assay on HOP-92 NSCLC; 3.29 µM in the assay on COLO 205 colon; 5.73 µM in the assay with MALME-3M melanoma. For the same compound, the TGI was greater than 28 µM in the assay with MOLT-4 leukemia; greater than 21.7 µM in the assay on CCRF-CEM leukemia; 28.3 µM with UACC-62 melanoma; 33.7 µM with NCI/ADR-RES ovarian; 31.5 µM with HCC-2998 colon.

For the compound `CCC1(c2ccc(N3C(=O)c4cccc5cc([N+](=O)[O-])cc(c45)C3=O)cc2)CCC(=O)NC1=O` (configuration not stated), the TGI is 27.7 µM with UO-31 renal; 38.6 µM in the assay on IGROV1 ovarian; greater than 100 µM in the assay with RPMI-8226 leukemia; 8.8 µM in the assay with HOP-92 NSCLC; greater than 100 µM in the assay with COLO 205 colon; 92.2 µM in the assay with MALME-3M melanoma. Also, the TGI was greater than 100 µM in the assay on MOLT-4 leukemia; 35 µM in the assay with CCRF-CEM leukemia; greater than 100 µM with UACC-62 melanoma; 79.8 µM with NCI/ADR-RES ovarian; greater than 88.6 µM with HCC-2998 colon.

Consider `O=C1NC(O)c2cc3ccccc3cc2O1` (configuration not stated), for which the TGI in the assay on UO-31 renal is greater than 100 µM; with IGROV1 ovarian, greater than 100 µM; with RPMI-8226 leukemia, greater than 100 µM; in the assay on HOP-92 NSCLC it was 90.7 µM; in the assay with COLO 205 colon, greater than 100 µM; in the assay on MALME-3M melanoma, greater than 100 µM. Also, the TGI was greater than 100 µM in the assay on MOLT-4 leukemia; greater than 100 µM in the assay with CCRF-CEM leukemia; 48.5 µM in the assay on UACC-62 melanoma; greater than 100 µM in the assay with NCI/ADR-RES ovarian; greater than 100 µM in the assay on HCC-2998 colon.

As to `Nc1[nH]c(=O)nc2c1ncn2C1OC(CO)C(O)C1O` (configuration not stated), the TGI with UO-31 renal, with IGROV1 ovarian, in the assay on RPMI-8226 leukemia, in the assay on HOP-92 NSCLC, in the assay on COLO 205 colon and in the assay on MALME-3M melanoma was greater than 100 µM in each case. Besides, the TGI in the assay with MOLT-4 leukemia was 63.3 µM; in the assay with CCRF-CEM leukemia it was 75.3 µM; in the assay on UACC-62 melanoma, greater than 100 µM; in the assay with NCI/ADR-RES ovarian, 51.1 µM; in the assay with HCC-2998 colon, 88.9 µM.

In the case of `CC(=O)NC1C(OCc2ccccc2)OC(CO)C(O)C1OC(C)C(=O)N[C@@H](C)C(=O)N[C@H](CCC(=O)NCCNCCNc1c2ccccc2nc2cccc([N+](=O)[O-])c12)C(N)=O` (some centres not stated), the TGI in the assay on UO-31 renal was 0.607 µM; in the assay with IGROV1 ovarian, 0.672 µM; with RPMI-8226 leukemia, 0.381 µM; in the assay on HOP-92 NSCLC, 0.169 µM; in the assay with COLO 205 colon, 0.198 µM; with MALME-3M melanoma it was 0.221 µM. Besides, the TGI with MOLT-4 leukemia was greater than 100 µM; with CCRF-CEM leukemia it was greater than 100 µM; in the assay on UACC-62 melanoma, 0.199 µM; in the assay on NCI/ADR-RES ovarian it was 10.6 µM; in the assay with HCC-2998 colon it was 0.072 µM.

For `Clc1ccc2c(c1)N(CCCN1CCCC13CCCCC3)c1ccccc1S2`, the TGI was 22.4 µM with UO-31 renal; 30.3 µM in the assay with IGROV1 ovarian; 11.3 µM in the assay on RPMI-8226 leukemia; 38.2 µM in the assay on HOP-92 NSCLC; greater than 54.9 µM in the assay on COLO 205 colon; 28.1 µM in the assay with MALME-3M melanoma. Also, the TGI with MOLT-4 leukemia turned out to be 18.9 µM; in the assay with CCRF-CEM leukemia, 28.3 µM; with UACC-62 melanoma, 31.1 µM; with NCI/ADR-RES ovarian, 44.5 µM; in the assay on HCC-2998 colon it was 8.64 µM.

As to `O=CCCCCCOCc1ccccc1`, the TGI was greater than 100 µM in the assay on UO-31 renal; greater than 100 µM with IGROV1 ovarian; greater than 56.8 µM in the assay with RPMI-8226 leukemia; greater than 100 µM in the assay on HOP-92 NSCLC; greater than 100 µM in the assay on COLO 205 colon; greater than 100 µM in the assay on MALME-3M melanoma. Besides, the TGI with MOLT-4 leukemia is 37.4 µM; with CCRF-CEM leukemia, greater than 69.9 µM; in the assay with UACC-62 melanoma, greater than 89.4 µM; in the assay with NCI/ADR-RES ovarian, greater than 100 µM; with HCC-2998 colon, greater than 100 µM.

Consider `CC(C)(CO[C@H]1C[C@H]2CC[C@@]1(C)C2(C)C)[N+](=O)[O-]`, for which the TGI in the assay on UO-31 renal was 25.8 µM; in the assay on IGROV1 ovarian, greater than 100 µM; with RPMI-8226 leukemia, 38.7 µM; in the assay with HOP-92 NSCLC it was 43.4 µM; in the assay on COLO 205 colon, 31.4 µM; with MALME-3M melanoma it was 40.3 µM. Further, the TGI in the assay with MOLT-4 leukemia is 50.5 µM; with CCRF-CEM leukemia it was greater than 100 µM; with UACC-62 melanoma, 41.7 µM; with NCI/ADR-RES ovarian, 90.3 µM; with HCC-2998 colon it was 5.19 µM.

Take `COC(=N)C1(C#N)NC(c2ccsc2)C(C#N)(C#N)NC1c1ccsc1` (configuration not stated): the TGI in the assay with UO-31 renal, in the assay with IGROV1 ovarian, with RPMI-8226 leukemia, in the assay on HOP-92 NSCLC, in the assay with COLO 205 colon and with MALME-3M melanoma was greater than 100 µM each time. Moreover, the TGI with MOLT-4 leukemia, in the assay with CCRF-CEM leukemia, in the assay with UACC-62 melanoma, with NCI/ADR-RES ovarian and with HCC-2998 colon was greater than 100 µM each time.

On to `NC(=O)[C@H](Cc1ccc(O)cc1)Nc1c(O)c2c(c(O)c1Cl)C(=O)C=CC2=O`, for which the TGI in the assay on UO-31 renal was greater than 6.36 µM; in the assay on IGROV1 ovarian, 4.66 µM; in the assay with RPMI-8226 leukemia it was 7 µM; in the assay with HOP-92 NSCLC it was 4.72 µM; in the assay on COLO 205 colon it was 3.36 µM; in the assay on MALME-3M melanoma it was 3.78 µM. Further, the TGI in the assay on MOLT-4 leukemia is 2.43 µM; with CCRF-CEM leukemia, 1.04 µM; in the assay with UACC-62 melanoma, 4.29 µM; in the assay on NCI/ADR-RES ovarian, greater than 7.25 µM; in the assay with HCC-2998 colon it was greater than 3.16 µM.

`Cc1c(C)c2c(c(N)c1C#N)C(=O)N(N)C2=O`: the TGI with UO-31 renal, in the assay on IGROV1 ovarian, in the assay with RPMI-8226 leukemia, in the assay with HOP-92 NSCLC, in the assay with COLO 205 colon and with MALME-3M melanoma was greater than 100 µM each time. Further, the TGI in the assay on MOLT-4 leukemia, in the assay with CCRF-CEM leukemia, with UACC-62 melanoma, in the assay on NCI/ADR-RES ovarian and in the assay with HCC-2998 colon was greater than 100 µM each time.

`COc1cc2c[n+]3c4c(c2c(OC)c1OC)CCCC4CC3` (configuration not stated): the TGI is greater than 100 µM in the assay with UO-31 renal; greater than 100 µM in the assay on IGROV1 ovarian; greater than 100 µM in the assay on RPMI-8226 leukemia; greater than 100 µM with HOP-92 NSCLC; greater than 100 µM in the assay with COLO 205 colon; 46.9 µM in the assay with MALME-3M melanoma. The TGI in the assay with MOLT-4 leukemia, in the assay with CCRF-CEM leukemia, in the assay with UACC-62 melanoma, in the assay with NCI/ADR-RES ovarian and in the assay on HCC-2998 colon was greater than 100 µM in each case.

For the compound `N#Cc1nc(CCc2nc(C#N)c(N)o2)oc1N`, the TGI in the assay with UO-31 renal, in the assay on IGROV1 ovarian, in the assay on RPMI-8226 leukemia, in the assay on HOP-92 NSCLC, with COLO 205 colon and in the assay with MALME-3M melanoma was greater than 10 µM in each case. The TGI in the assay with MOLT-4 leukemia, in the assay on CCRF-CEM leukemia, in the assay on UACC-62 melanoma, with NCI/ADR-RES ovarian and in the assay on HCC-2998 colon was greater than 10 µM each time.

Regarding `C=C1c2nc3ccccc3n2C=C(c2ccc(C)cc2)N1c1ccc(OC)cc1`, the TGI is greater than 100 µM with UO-31 renal; greater than 100 µM in the assay on IGROV1 ovarian; greater than 58.5 µM with RPMI-8226 leukemia; greater than 100 µM with HOP-92 NSCLC; greater than 100 µM in the assay with COLO 205 colon; greater than 100 µM in the assay with MALME-3M melanoma. Besides, the TGI in the assay on MOLT-4 leukemia is greater than 100 µM; in the assay on CCRF-CEM leukemia, greater than 100 µM; in the assay with UACC-62 melanoma, greater than 100 µM; with NCI/ADR-RES ovarian, greater than 94.8 µM; with HCC-2998 colon it was greater than 100 µM.
